Here are results for 13 compounds from patent US20250177408A1, “INHIBITOR OF INTERACTION BETWEEN YAP/TAZ AND TEAD, PREPARATION THEREOF, PHARMACEUTICAL COMPOSITION THEREOF AND USE THEREOF” (ETERN BIOPHARMA (SHANGHAI) CO., LTD., priority 2022, published 2025).

In one test the test system is MSTO-211H cells. Briefly: Cell proliferation inhibition experiment (CellTiter-Glo). The following applies: Homo sapiens, 96 hours, read-out: Inhibitory activity of each compound on the proliferation of MSTO-211H cells (grades of IC50 values). Type of test: cell-based. The method, boiled down:
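MSTO-211H cells (1500/well, RPMI1640 + 10% FBS) were plated overnight at 37° C, 5% CO2, then exposed in duplicate to 9 three-fold compound dilutions (DMSO ≤0.5% final) for 96 hours. Viability was read as CellTiter-Glo luminescence after 10 min at room temperature. IC50 was derived from inhibition of the CTG signal.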
(In general: ATP-based viability assays read luminescence as a measure of living cells.)

Test [1] deals with YAP-TEAD protein interaction (His-TEAD1 (209-426) protein, Bio-YAP peptide (60-100)) (Homo sapiens, UniProt P28347). As to the kind of experiment: YAP-TEAD protein interaction HTRF experiment. Type of test: binding. The following applies: His-TEAD1 (209-426) 10 nM, Bio-YAP peptide 50 nM, read-out: Activity of each compound in blocking YAP-TEAD protein interaction (grades of IC50 values). Put shortly: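 His-TEAD1 (209-426) at 10 nM final was preincubated 20 min at RT with compounds (10-point 3-fold dilutions, duplicates, 1% DMSO), then Bio-YAP peptide, 10 min. Anti-His-Eu cryptate/streptavidin-XL665 added for 1 h at RT; HTRF read at ex 320 nm, Em665/Em620 ratio ×10000, IC50 from % inhibition.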
YAP-TEAD protein interaction (His-TEAD1 (209-426) protein, Bio-YAP peptide (60-100)), sequence (P28347 209-426): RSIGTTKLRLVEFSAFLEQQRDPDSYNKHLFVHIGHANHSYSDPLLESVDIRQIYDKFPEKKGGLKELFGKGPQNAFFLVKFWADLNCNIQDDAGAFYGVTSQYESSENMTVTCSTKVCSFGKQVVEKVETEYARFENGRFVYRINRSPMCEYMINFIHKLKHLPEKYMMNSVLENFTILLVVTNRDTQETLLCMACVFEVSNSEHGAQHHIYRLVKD
In general terms: In TR-FRET formats the signal depends on donor and acceptor labels being close together.

In the case of `NC(=O)c1cc2c(c(F)c1-c1c(Cl)c(F)cc3c1C[C@](c1ccccc1)([C@@H]1CCCN1)O3)Oc1ncn(CCF)c(=O)c1O2` (atropisomer, axis not shown) [Compound 138, (S)-8-((S)-5-Chloro-6-fluoro-2-phenyl-2-((S)-pyrrolidin-2-yl)-2,3-dihydrobenzofuran-4-yl)-9-fluoro-3-(2-fluoroethyl)-4-oxo-3,4-dihydrobenzo [5,6][1,4]dioxo [2,3-d]pyrimidine-7-carboxamide], the IC50 with MSTO-211H cells is below 0.2 µM; in test [1], below 0.05 µM.

For `NC(=O)c1cc2c(c(F)c1-c1c(Cl)c(F)cc3c1C[C@](c1ccccc1)([C@@H]1CCCN1)O3)Oc1c(ncn(C3CC3)c1=O)O2` (atropisomer, axis not shown) [Compound 139, (S)-7-((S)-5-Chloro-6-fluoro-2-phenyl-2-((S)-pyrrolidin-2-yl)-2,3-dihydrobenzofuran-4-yl)-3-cyclopropyl-6-fluoro-4-oxo-3,4-dihydrobenzo [5,6][1,4]dioxo [2,3-d]pyrimidine-8-carboxamide], the figures for the IC50 (with MSTO-211H cells; in test [1]) were below 0.2 µM and below 0.05 µM, respectively.

In the case of `NC(=O)c1cc2c(c(F)c1-c1c(Cl)c(F)cc3c1C[C@](c1ccccc1)([C@@H]1CCCN1)O3)Oc1ncn(C3CC3)c(=O)c1O2` (atropisomer, axis not shown) [Compound 140], the IC50 in the test with MSTO-211H cells was below 0.2 µM; in test [1], below 0.05 µM.

As for `CNC(=O)c1cc2c(c(F)c1-c1c(Cl)c(F)cc3c1C[C@](c1ccccc1)([C@@H]1CCCN1)O3)Oc1c(cnn(CC(F)F)c1=O)O2` (atropisomer, axis not shown) [Compound 141, (S)-8-((S)-5-Chloro-6-fluoro-2-phenyl-2-((S)-pyrrolidin-2-yl)-2,3-dihydrobenzofuran-4-yl)-2-(2,2-difluoroethyl)-9-fluoro-N-methyl-1-oxo-1,2-dihydrobenzo[5,6][1,4]dioxo[2,3-d]pyridazine-7-carboxamide], the figures for the IC50 (in the test on MSTO-211H cells; in test [1]) were below 0.2 µM and below 0.05 µM, respectively.

With `CNC(=O)c1cc2c(c(F)c1-c1c(Cl)c(F)cc3c1C[C@](c1ccccc1)([C@@H]1CCCN1)O3)Oc1c(cnn(CCC(F)(F)F)c1=O)O2` (atropisomer, axis not shown) [Compound 142, (R)-8-((S)-5-Chloro-6-fluoro-2-phenyl-2-((S)-pyrrolidin-2-yl)-2,3-dihydrobenzofuran-4-yl)-9-fluoro-N-methyl-1-oxo-2-(3,3,3-trifluoropropyl)-1,2-dihydrobenzo[5,6][1,4]dioxa[2,3-d]pyridazine-7-carboxamide], the IC50 in the test on MSTO-211H cells is below 0.2 µM; in test [1], below 0.05 µM.

With `NC(=O)c1cc2c(c(F)c1-c1c(Cl)c(F)cc3c1C[C@](c1ccccc1)([C@@H]1CCCN1)O3)Oc1c(cnn(CC(F)(F)F)c1=O)O2` (atropisomer, axis not shown) [Compound 143, (S)-8-((S)-5-Chloro-6-fluoro-2-phenyl-2-((S)-pyrrolidin-2-yl)-2,3-dihydrobenzofuran-4-yl)-9-fluoro-1-oxo-2-(2,2,2-trifluoroethyl)-1,2-dihydroxybenzo[5,6][1,4]dioxo[2,3-d]pyridazine-7-carboxamide], the IC50 is below 0.2 µM with MSTO-211H cells and below 0.05 µM in test [1].

On to `CNC(=O)c1cc2c(c(F)c1-c1c(Cl)c(F)cc3c1C[C@](c1ccccc1)([C@@H]1CCCN1)O3)Oc1c(cnn(CC(F)(F)F)c1=O)O2` (atropisomer, axis not shown) [Compound 144], for which the IC50 in the test on MSTO-211H cells is below 0.2 µM; in test [1], below 0.05 µM.

`NC(=O)c1cc2c(c(F)c1-c1c(Cl)c(F)cc3c1C[C@](c1ccccc1)([C@@H]1CCCN1)O3)Oc1c(cnn(C3CC(F)(F)C3)c1=O)O2` (atropisomer, axis not shown) [Compound 147, (S)-8-((S)-5-Chloro-6-fluoro-2-phenyl-2-((S)-pyrrolidin-2-yl)-2,3-dihydrobenzofuran-4-yl)-2-(3,3-difluorocyclobutyl)-9-fluoro-1-oxo-1,2-dihydrobenzo[5,6][1,4]dioxa[2,3-d]pyridazine-7-carboxamide]: the IC50 in the test with MSTO-211H cells was below 0.2 µM; in test [1], below 0.05 µM.

On to `CNC(=O)c1cc2c(c(F)c1-c1c(Cl)c(F)cc3c1C[C@](c1ccccc1)([C@@H]1CCCN1)O3)Oc1c(cnn(C3CC(F)(F)C3)c1=O)O2` (atropisomer, axis not shown) [Compound 148, (S)-8-((S)-5-Chloro-6-fluoro-2-phenyl-2-((S)-pyrrolidin-2-yl)-2,3-dihydrobenzofuran-4-yl)-2-(3,3-difluorocyclobutyl)-9-fluoro-N-methyl-1-oxo-1,2-dihydrobenzo [5,6][1,4]dioxo [2,3-d]pyridazine-7-carboxamide], for which the IC50 in the test with MSTO-211H cells was below 0.2 µM; in test [1], below 0.05 µM.

`COCCn1ncc2c(c1=O)Oc1c(cc(C(N)=O)c(-c3c(Cl)c(F)cc4c3C[C@](c3ccccc3)([C@@H]3CCCN3)O4)c1F)O2` (atropisomer, axis not shown) [Compound 149, (R)-8-((S)-5-Chloro-6-fluoro-2-phenyl-2-((S)-pyrrolidin-2-yl)-2,3-dihydrobenzofuran-4-yl)-9-fluoro-2-(2-methoxyethyl)-1-oxo-1,2-dihydrobenzo[5,6][1,4]dioxa[2,3-d]pyridazine-7-carboxamide]: the IC50 with MSTO-211H cells was below 0.2 µM; in test [1], below 0.05 µM.

Regarding `CNC(=O)c1cc2c(c(F)c1-c1c(Cl)c(F)cc3c1C[C@](c1ccccc1)([C@@H]1CCCN1)O3)Oc1c(cnn(CCOC)c1=O)O2` (atropisomer, axis not shown) [Compound 150, (S)-8-((S)-5-Chloro-6-fluoro-2-phenyl-2-((S)-pyrrolidin-2-yl)-2,3-dihydrobenzofuran-4-yl)-9-fluoro-2-(2-methoxyethyl)-N-methyl-1-oxo-1,2-dihydrobenzo [5,6][1,4]dioxo [2,3-d]pyridazine-7-carboxamide], the IC50 was below 0.2 µM in the test with MSTO-211H cells and below 0.05 µM in test [1].

Take `[2H]C([2H])([2H])n1ncc2c(c1=O)Oc1c(cc(C(=O)NC)c(-c3c(Cl)c(F)cc4c3C[C@](c3ccccc3)([C@@H]3CCCN3)O4)c1F)O2` (atropisomer, axis not shown) [Compound 151, (S)-8-((S)-5-Chloro-6-fluoro-2-phenyl-2-((S)-pyrrolidin-2-yl)-2,3-dihydrobenzofuran-4-yl)-9-fluoro-N-methyl-2-(methyl-d3)-1-oxo-1,2-dihydrobenzo[5,6][1,4]dioxo [2,3-d]pyridazine-7-carboxamide]: the IC50 is below 0.2 µM in the test on MSTO-211H cells and below 0.05 µM in test [1].

Regarding `[2H]C1([2H])CC[C@]([2H])([C@@]2(c3ccccc3)Cc3c(cc(F)c(Cl)c3-c3c(C(N)=O)cc4c(c3F)Oc3c(cnn(CC(F)F)c3=O)O4)O2)N1` (atropisomer, axis not shown) [Compound 152, (S)-8-((S)-5-Chloro-6-fluoro-2-phenyl-2-((S)-pyrrolidin-2-yl-2,5,5-d3)-2,3-dihydrobenzofuran-4-yl)-2-(2,2-difluoroethyl)-9-fluoro-1-oxo-1,2-dihydrobenzo [5,6][1,4]dioxo [2,3-d]pyridazine-7-carboxamide], the IC50 in the test on MSTO-211H cells is below 0.2 µM; in test [1] it was below 0.05 µM.
